Experimental data published in patent publication US20250382251A1, “ALDEHYDE COMPOSITION” (MITSUBISHI GAS CHEMICAL COMPANY, INC., priority 2022, published 2025).

Assays:
[1] = Evaluation of threshold of smell; settings: diluted with dipropylene glycol, 10 to 0.001 ppm; lower limit concentration at which the smell can be identified
Bhas42 cells = assay: Carcinogenicity prediction test (transformation test, OECD 231GD); type: cell-based; settings: in vitro transformation test using Bhas42 cells, negative or positive
Protocol: Using the aldehyde compositions obtained in Examples and Lilial (3-(p-tert-butylphenyl)-2-methylpropanal), a transformation test (an in vitro carcinogenicity prediction test using Bhas42 cells) was performed based on OECD 231GD to determine whether the carcinogenicity was negative or positive. When the result of this test is negative, it is predicted that there is no possibility of causing carcinogenicity, and safety is high.

SMILES: CC(C=O)Cc1ccc(C(C)(C)C)cc1 (centres unmarked) [Comparative Example 2, 3-(p-tert-butylphenyl)-2-methylpropanal]
- Threshold of smell (ppm) [1]: 1 ppm
- Carcinogenicity prediction test (Bhas42 cells): Positive
